Experimental findings from publication PMC12196213, “New Insights into the Anticancer Effects and Toxicogenomic Safety of Two β-Lapachone Derivatives” (Pharmaceuticals, 2025) are described below.

For series [1], the system named is L929 (murine fibroblasts). The series is described as follows: MTT cytotoxicity assay, L929. It is filed as cell-based. The following applies: Mus musculus, L929, 72 h. The protocol: (§1) To assess the cytotoxicity of the compounds, the MTT [3-(4,5-dimethylthiazol-2-yl)-2,5-diphenyltetrazolium bromide] assay was employed. The cells (2 × 10^5/mL) were incubated with the substances at concentrations ranging from 0.78 to 25 µg/mL. β-lap was used as a positive control. After 24, 48, or 72 h of incubation, MTT was added at a concentration of 5 mg/mL. Cell viability in different treatments was compared to the negative control using the following formula: Cell viability%=mean absorbance of treated samples/mean absorbance of negative control×100 The IC50 (the concentration that inhibits 50% of cell growth compared to the negative control) was calculated using nonlinear regression in GraphPad Prism 8.0 for Windows (GraphPad Demo Software, San Diego, CA, USA). Experiments were performed in triplicate and in two independent experiments. The protocol is also described in other previous publications.
(Tetrazolium dyes change colour on reduction, which living cells bring about.)

Series [2] concerns MDA-MB-231 (human breast adenocarcinoma). The series is described as follows: MTT cytotoxicity assay, MDA-MB-231. The series is classed as cell-based. The following applies: for IC50: Homo sapiens, MDA-MB-231, MDA-MD-231 (so in the source), 72 h, MTT; for selectivity index (SI): IC50 L929 / IC50 MDA-MD-231, 72 h. The method, then: as §1, with “publications. The IC50 of normal and cancer cells was used to calculate the SI of compounds BV3 and BV5. The SI indicated the selectivity of the compounds among the normal cell line (L-929) and a cancer cell line (HCT-116, MDA-MB-231, HepG2, or HeLa). SI is a crucial parameter for therapeutic applications in upcoming clinical trials. Therefore, the following formula was used to calculate SI: SI=IC50(normal cell line)/IC50(cancer cell line)” for “publications.”

Another series relates to HeLa cells. The series is described as follows: Morphological analysis, rapid panoptic staining. The series is classed as cell-based, human. The following applies: 72 h, at IC50 and 2 × IC50. The protocol: Following the screening of IC50 values and SI in solid tumor cells, indications of potential cell death were explored in the most sensitive cell line. The morphological changes were evaluated according to protocols previously published with modifications. Thus, HeLa cells were seeded in 12-well plates at a concentration of 4 × 10^5 cells/mL and incubated overnight for adhesion. […] After the treatment period, the medium was aspirated, and the plate was washed twice with PBS. The cells were fixed and stained using the Panoptic Rapid Kit following the manufacturer’s protocol. Morphological analyses were conducted to observe cellular alterations indicative of cell death, including cellular volume reduction, membrane integrity, karyolysis, pyknosis, karyorrhexis, apoptotic bodies, vacuoles, and cellular debris.

For series [3], the system named is peripheral blood erythrocytes from Swiss mice. The series is described as follows: Alkaline comet assay in vivo. The following applies: for damage frequency (comet assay) compared to negative control / damage index (comet assay) compared to negative control: intraperitoneally. Also noted: species or system Mus musculus. The protocol:
Forty female Mus musculus mice (Swiss strain) were used. The animals were divided into 8 groups, with 5 animals each: G1—negative control (NC) treated with the vehicle solution intraperitoneally; G2—positive control (PC) treated intraperitoneally with cyclophosphamide at a dose of 30 mg/kg; groups exposed to the BV3 derivative—Group BV3—I intraperitoneally at doses of 2000 mg/kg; Group BV3—II 1000 mg/kg; Group BV3—III 500 mg/kg; and groups exposed to BV5—Group BV5—I, received BV5 intraperitoneally at doses of 2000 mg/kg; Group BV5—II 1000 mg/kg; and Group BV5—III 500 mg/kg. For the comet assay, approximately 0.5 mL of blood from each animal was collected via the tail vein 6–8 h after administration of the compounds. For the micronucleus test, 1 mL of blood from each animal was collected by cardiac puncture 48 h after administration of the compounds. For that collection, the mice were anesthetized with ketamine (100 mg/kg) and xylazine (10 mg/kg), intraperitoneally. Immediately after blood collection, the animals were euthanized with high doses of anesthetics (ketamine 300 mg/kg and xylazine 30 mg/kg). The in vivo experiments were approved by the Ethics Committee on the Use of Animals (CEUA) of the Federal University of Pernambuco, under process no. 004/2023.
The female mice (n = 40) were equally distributed into 8 experimental groups; the groups were composed of 5 female animals each. After administering the solutions and compounds to the groups, blood samples were taken 6 and 8 h after treatment. Subsequently, 15 µL of blood was used, which was homogenized with 100 µL of low-melting-point agarose (LM agarose) and subsequently deposited on slides previously prepared with standard agarose. The slides were covered with coverslips and left at 4 °C for 10 min. After refrigeration, the coverslips were removed and the slides were placed in a lysis solution (2.5 M NaCl, 100 mM EDTA, 10 mM tris, 1% Triton x-100, 10% DMSO, pH 13) for 48 h. After lysis, the slides were left in an alkaline electrophoresis buffer ([…] and […] EDTA disodium salt, pH 13) for 20 min to unroll the DNA and then subjected to electrophoresis in a horizontal vat for 20 min, with a current of ± 300 mA and potential difference of 32 V. After electrophoresis, the slides were neutralized for 15 min in 0.4 M tris-HCl buffer, pH 7.5, and fixed for 5 min in absolute ethanol. The slides were stained with 100 µL of a 1 µg/mL acridine orange solution. All test steps were carried out under red light. To analyze damage levels, 100 nucleoids from each animal were evaluated for damage level. For this, each nucleoid was classified into one of five classes according to the proportion of DNA in the comet’s tail and head: 0 (no damage); 1 (little apparent damage); 2 (medium damage); 3 (medium damage with longer tail); and 4 (maximum damage). The Damage Index (DI) was thus calculated according to the formula DI=0×nºclass comets 0+1×nºclass comets 1+2×nºclass comets 2+3×nºclass comets 3+4×(nºclass comets 4)
Thus, the values obtained could range from 0 (no damage) to 400 (maximum damage). Additionally, the Frequency of damage (FD) was calculated based on the percentage of all nucleoids with some damage (class 1 to class 4) relative to the total number of nucleoids counted per animal: FD=nºofdamaged comets−nºclass comets 0×100/(nºtotal)

Turning to `CC1(C)CCC2=C(O1)c1ccccc1/C(=N/NC(=S)Nc1ccc([N+](=O)[O-])cc1)C2=O` [BV3, 2-(2,2-dimethyl-5-oxo-3,4-dihydro-2H-benzo[h]chromen-6(5H)-ylidene)-N-(4nitrophen-yl)thio-carbohydrazide], in series [1], the IC50 amounted to 44 µM. Also, in series [2], the IC50 is 16.5 µM and the “selectivity index (SI)” value came to 2.66. For the same molecule, in the series with HeLa cells, the morphological changes result is “reduced cellular volume, cells with condensed chromatin, and cellular debris”. In addition, in series [3] (2000 mg/kg), the “damage frequency (comet assay) compared to negative control” value is given as “decrease” and the “damage index (comet assay) compared to negative control” value (shortened to “damage index (comet assay)”) is reported as “decrease”. In series [3] (500 and 1000 mg/kg), the “damage frequency (comet assay) compared to negative control” value is “no significant differences” and the “damage index (comet assay)” value is recorded as “no significant differences”.
As to `Cc1ccc(NC(=S)N/N=C2\C(=O)C3=C(OC(C)(C)CC3)c3ccccc32)cc1` [BV5, 2-(2,2-dimethyl-5-oxo-3,4-dihydro-2H-benzo[h]chromen-6(5H)-ylidene)-N-(p-tolyl)-thiocarbohydrazide], the IC50 in series [1] is 13.1 µM; in series [2], 15.5 µM. For the same molecule, in the series on HeLa cells, the morphological changes entry was “loss of membrane integrity, reduced cellular volume, presence of fragmented/pyknotic nuclei, chromatin condensation, and cellular debris”. Also, in series [3] (any of the tested doses (500, 1000, 2000 mg/kg)), the “frequency of damage (comet assay)” value is given as “no difference”. The “damage index (comet assay)” value in series [3] (2000 mg/kg) is “increase”; in series [3] (500 and 1000 mg/kg) it was “no differences”.
With `CC1(C)CCC2=C(O1)c1ccccc1C(=O)C2=O` [β-lap, β-Lapachone], in series [1], the IC50 is 4.54 µM. In series [2], the IC50 stood at 3.38 µM and the “selectivity index (SI)” value came out at 1.34.

One may read the IC50 as the concentration that gives 50% inhibition.
